{"source": "ChEMBL document CHEMBL4680214", "about": "“Fluorinated derivatives of 2-phenyl-3-hydroxy-4(1H)-quinolinone as tubulin polymerization inhibitors” (Eur J Med Chem, 2020)", "key": {"[1]": {"test_system": "HCT-116", "test": "Cell cycle arrest in human HCT-116 cells assessed as accumulation at G0/G1 phase at 5 times IC50 measured after 24 hrs by propidium iodide staining based flow cytometry (reference value: 35.3%)", "type": "functional"}, "[2]": {"test_system": "CCRF-CEM", "test": "Cell cycle arrest in human CCRF-CEM cells assessed as accumulation at sub-G1 phase at 5 times IC50 measured after 24 hrs by propidium iodide staining based flow cytometry (reference value: 2%)", "type": "functional"}, "[3]": {"test_system": "K562", "test": "Cytotoxicity against human paclitaxel-resistant K562 cells incubated for 72 hrs by MTS assay", "type": "functional, cell-based", "settings": "K562, 72 h"}, "[4]": {"test_system": "CCRF-CEM", "test": "Cell cycle arrest in human CCRF-CEM cells assessed as polyploid cell population at 2 times IC50 measured after 36 hrs by propidium iodide staining based flow cytometry (reference value: 11.3%)", "type": "functional"}, "[5]": {"test_system": "HCT-116", "test": "Cell cycle arrest in human HCT-116 cells assessed as accumulation at G0/G1 phase at IC50 measured after 24 hrs by propidium iodide staining based flow cytometry (reference value: 35.3%)", "type": "functional"}, "[6]": {"test_system": "HCT-116", "test": "Cell cycle arrest in human HCT-116 cells assessed as BrdU incorporation at IC50 measured after 24 hrs by propidium iodide/immunostaining based flow cytometry (reference value: 48.6%)", "type": "functional"}, "[7]": {"test_system": "HCT-116", "test": "Cytotoxicity against human HCT-116 cells incubated for 72 hrs by MTS assay", "type": "functional, cell-based", "settings": "HCT-116, 72 h"}, "[8]": {"test_system": "BJ", "test": "Cytotoxicity against human BJ cells incubated for 72 hrs by MTS assay", "type": "cell-based"}, "[9]": {"test_system": "CCRF-CEM", "test": "Cytotoxicity against human daunorubicine-resistant CCRF-CEM cells incubated for 72 hrs by MTS assay", "type": "functional, cell-based"}, "[10]": {"test_system": "CCRF-CEM", "test": "Cell cycle arrest in human CCRF-CEM cells assessed as polyploid cell population at 2 times IC50 measured after 24 hrs by propidium iodide staining based flow cytometry (reference value: 11.3%)", "type": "functional"}, "[11]": {"test_system": "HCT-116", "test": "Cell cycle arrest in human HCT-116 cells assessed as phosphorylation of histone H3 at Ser10 at 5 times IC50 measured after 24 hrs by propidium iodide staining based flow cytometry (reference value: 3.4%)", "type": "functional"}, "[12]": {"test_system": "HCT-116", "test": "Cell cycle arrest in human HCT-116 cells assessed as phosphorylation of histone H3 at Ser10 at IC50 measured after 24 hrs by propidium iodide staining based flow cytometry (reference value: 3.4%)", "type": "functional"}, "[13]": {"test_system": "HCT-116", "test": "Cytotoxicity against p53-deficient human HCT-116 cells incubated for 72 hrs by MTS assay", "type": "functional, cell-based", "settings": "HCT-116, 72 h"}, "[14]": {"organism": "Sus scrofa", "test": "Inhibition of porcine brain tubulin polymerization assessed as Vmax of polymerization at 10 umol/L measured at 60 secs interval for 30 mins by turbidometric method", "settings": "dose 10.0 µmol/L"}, "[15]": {"test_system": "CCRF-CEM", "test": "Cell cycle arrest in human CCRF-CEM cells assessed as accumulation at S phase at IC50 measured after 24 hrs by propidium iodide staining based flow cytometry (reference value: 42.2%)", "type": "functional"}, "[16]": {"organism": "Sus scrofa", "test": "Inhibition of porcine brain tubulin polymerization at 10 umol/L measured at 60 secs interval for 30 mins by turbidometric method", "settings": "dose 10.0 µmol/L"}, "[17]": {"test_system": "HCT-116", "test": "Cell cycle arrest in human HCT-116 cells assessed as accumulation at G2/M phase at 5 times IC50 measured after 24 hrs by propidium iodide staining based flow cytometry (reference value: 27.0%)", "type": "functional"}, "[18]": {"test_system": "CCRF-CEM", "test": "Cell cycle arrest in human CCRF-CEM cells assessed as increase in accumulation at G2/M phase at 2 times IC50 measured after 6 to 12 hrs by propidium iodide staining based flow cytometry", "type": "functional", "settings": "time 6-12 hrs"}, "[19]": {"test_system": "CCRF-CEM", "test": "Cell cycle arrest in human CCRF-CEM cells assessed as accumulation at G2/M phase at IC50 measured after 24 hrs by propidium iodide staining based flow cytometry (reference value: 22.6%)", "type": "functional"}, "[20]": {"test_system": "CCRF-CEM", "test": "Cell cycle arrest in human CCRF-CEM cells assessed as BrdU incorporation at IC50 measured after 24 hrs by propidium iodide/immunostaining based flow cytometry (reference value: 60.0%)", "type": "functional"}, "[21]": {"test_system": "CCRF-CEM", "test": "Cell cycle arrest in human CCRF-CEM cells assessed as polyploid cell population at 2 times IC50 measured after 6 hrs by propidium iodide staining based flow cytometry (reference value: 11.3%)", "type": "functional"}, "[22]": {"test_system": "CCRF-CEM", "test": "Cell cycle arrest in human CCRF-CEM cells assessed as increase in phosphorylation of histone H3 at Ser10 at 2 times IC50 measured after 6 to 12 hrs by Western blot analysis", "type": "functional, cell-based", "settings": "time 6-12 hrs"}, "[23]": {"target": "Tubulin (Homo sapiens) (UniProt P68371+Q9H4B7+P0DPH7+P68366+Q13509+Q71U36+P04350+Q3ZCM7+P07437+P68363+Q9BQE3+Q6PEY2+Q13885+Q9BVA1+Q9BUF5)", "test": "Induction of microtubule depolymerization in human HCT-116 cells assessed as appearance of abnormal mitotic spindle morphology at 5 times IC50 after 24 hrs by DAPI staining based immunofluorescence analysis", "type": "cell-based"}, "[24]": {"test_system": "HCT-116", "test": "Cell cycle arrest in human HCT-116 cells assessed as accumulation at sub-G1 phase at 5 times IC50 measured after 24 hrs by propidium iodide staining based flow cytometry (reference value: 1.6%)", "type": "functional"}, "[25]": {"test_system": "A549", "test": "Cytotoxicity against human A549 cells incubated for 72 hrs by MTS assay", "type": "functional, cell-based", "settings": "A549, 72 h"}, "[26]": {"test_system": "CCRF-CEM", "test": "Cell cycle arrest in human CCRF-CEM cells assessed as polyploid cell population at 2 times IC50 measured after 12 hrs by propidium iodide staining based flow cytometry (reference value: 11.3%)", "type": "functional"}, "[27]": {"test_system": "CCRF-CEM", "test": "Cell cycle arrest in human CCRF-CEM cells assessed as BrdU incorporation at 5 times IC50 measured after 24 hrs by propidium iodide/immunostaining based flow cytometry (reference value: 60.0%)", "type": "functional"}, "[28]": {"test_system": "CCRF-CEM", "test": "Cell cycle arrest in human CCRF-CEM cells assessed as increase in cyclin B1 expression at 2 times IC50 measured after 6 to 12 hrs by Western blot analysis", "type": "functional, cell-based", "settings": "time 6-12 hrs"}, "[29]": {"test_system": "CCRF-CEM", "test": "Cytotoxicity against human CCRF-CEM cells incubated for 72 hrs by MTS assay", "type": "functional, cell-based"}, "[30]": {"test_system": "HCT-116", "test": "Cell cycle arrest in human HCT-116 cells assessed as accumulation at sub-G1 phase at IC50 measured after 24 hrs by propidium iodide staining based flow cytometry (reference value: 1.6%)", "type": "functional"}, "[31]": {"test_system": "CCRF-CEM", "test": "Cell cycle arrest in human CCRF-CEM cells assessed as increase in Bax expression at 2 times IC50 measured after 24 hrs by Western blot analysis", "type": "functional, cell-based"}, "[32]": {"test_system": "CCRF-CEM", "test": "Cell cycle arrest in human CCRF-CEM cells assessed as BrU incorporation at IC50 measured after 24 hrs by propidium iodide/immunostaining based flow cytometry (reference value: 52.2%)", "type": "functional"}, "[33]": {"test_system": "HCT-116", "test": "Cell cycle arrest in human HCT-116 cells assessed as BrU incorporation at IC50 measured after 24 hrs by propidium iodide/immunostaining based flow cytometry (reference value: 54.0%)", "type": "functional"}, "[34]": {"test_system": "K562", "test": "Cytotoxicity against human K562 cells incubated for 72 hrs by MTS assay", "type": "functional, cell-based", "settings": "K562, 72 h"}, "[35]": {"test_system": "HCT-116", "test": "Cell cycle arrest in human HCT-116 cells assessed as BrU incorporation at 5 times IC50 measured after 24 hrs by propidium iodide/immunostaining based flow cytometry (reference value: 54.0%)", "type": "functional"}, "[36]": {"test_system": "HCT-116", "test": "Cell cycle arrest in human HCT-116 cells assessed as accumulation at S phase at IC50 measured after 24 hrs by propidium iodide staining based flow cytometry (reference value: 37.7%)", "type": "functional"}, "[37]": {"test_system": "CCRF-CEM", "test": "Cell cycle arrest in human CCRF-CEM cells assessed as phosphorylation of histone H3 at Ser10 at IC50 measured after 24 hrs by propidium iodide staining based flow cytometry (reference value: 2.0%)", "type": "functional"}}, "note": "Activity calls are given as the source filed them. The calls are words filed in the database; no cut-off is given here."}
{"molecule": "O=c1c(O)c(-c2ccccc2)[nH]c2cc(F)c(Sc3ccccc3)cc12", "values": [{"measurement": "Activity", "setting": "[1]", "result": 2.7, "unit": "%"}, {"measurement": "Activity", "setting": "[2]", "result": 29.7, "unit": "%"}, {"measurement": "IC50", "setting": "[3]", "result": 2.9, "unit": "µM"}, {"measurement": "Activity", "setting": "[4]", "result": 20.8, "unit": "%"}, {"measurement": "Activity", "setting": "[5]", "result": 33.3, "unit": "%"}, {"measurement": "Activity", "setting": "[6]", "result": 42.1, "unit": "%"}, {"measurement": "IC50", "setting": "[7]", "result": 1.3, "unit": "µM"}, {"measurement": "IC50", "setting": "[8]", "result": "> 50", "unit": "µM"}, {"measurement": "IC50", "setting": "[9]", "result": 3.7, "unit": "µM"}, {"measurement": "Activity", "setting": "[10]", "result": 16.6, "unit": "%"}, {"measurement": "Activity", "setting": "[11]", "result": 15.5, "unit": "%"}, {"measurement": "Activity", "setting": "[12]", "result": 6.2, "unit": "%"}, {"measurement": "IC50", "setting": "[13]", "result": 4, "unit": "µM"}, {"measurement": "Vmax (milli optical density/minute)", "setting": "[14]", "result": 8.3}, {"measurement": "Activity", "setting": "[15]", "result": 56.7, "unit": "%"}, {"measurement": "inhibition", "setting": "[16]", "result": "Active"}, {"measurement": "Activity", "setting": "[17]", "result": 64.1, "unit": "%"}, {"measurement": "Activity", "setting": "[18]", "result": "Active"}, {"measurement": "Activity", "setting": "[19]", "result": 41.5, "unit": "%"}, {"measurement": "Activity", "setting": "[20]", "result": 74.2, "unit": "%"}, {"measurement": "Activity", "setting": "[21]", "result": 10.5, "unit": "%"}, {"measurement": "Activity", "setting": "[22]", "result": "Active"}, {"measurement": "Activity", "setting": "[23]", "result": "Active"}, {"measurement": "Activity", "setting": "[24]", "result": 8.2, "unit": "%"}, {"measurement": "IC50", "setting": "[25]", "result": 3.6, "unit": "µM"}, {"measurement": "Activity", "setting": "[26]", "result": 12.4, "unit": "%"}, {"measurement": "Activity", "setting": "[27]", "result": 18.7, "unit": "%"}, {"measurement": "Activity", "setting": "[28]", "result": "Active"}, {"measurement": "IC50", "setting": "[29]", "result": 3.3, "unit": "µM"}, {"measurement": "Activity", "setting": "[30]", "result": 3.4, "unit": "%"}, {"measurement": "Activity", "setting": "[31]", "result": "Active"}, {"measurement": "Activity", "setting": "[32]", "result": 67.4, "unit": "%"}, {"measurement": "Activity", "setting": "[33]", "result": 65.4, "unit": "%"}, {"measurement": "IC50", "setting": "[34]", "result": 1.3, "unit": "µM"}, {"measurement": "Activity", "setting": "[35]", "result": 63.9, "unit": "%"}, {"measurement": "Activity", "setting": "[36]", "result": 33.5, "unit": "%"}, {"measurement": "Activity", "setting": "[37]", "result": 9.4, "unit": "%"}]}
